Assay results taken from the kinase profiling compilation of Christmann-Franck et al. (2016).

Key:
Experiment in all cases: KINOMEscan competition binding
Conditions in all cases: compound 10.0 µM
[1] = tested on: ABL1 (human), P00519 [E255K]
[2] = biological target: BTK (human) (UniProt Q06187)
[3] = biological target: CDK13 (human) (UniProt Q14004)
[4] = biological target: CDK4 CCND1 (human) (UniProt P11802+P24385)
[5] = biological target: CDK4 CCND3 (human) (UniProt P11802+P30281)
[6] = biological target: CDKL1 (human) (UniProt Q00532)
[7] = biological target: DDR1 (human) (UniProt Q08345)
[8] = biological target: DYRK1A (human) (UniProt Q13627)
[9] = biological target: DYRK2 (human) (UniProt Q92630)
[10] = tested on: EGFR (human), P00533 [746-750 del]
[11] = tested on: EGFR (human), P00533 [G719S]
[12] = biological target: EPHB6 (human) (UniProt O15197)
[13] = biological target: ERN1 (human) (UniProt O75460)
[14] = tested on: FLT3 (human), P36888 [K663Q]
[15] = biological target: HIPK4 (human) (UniProt Q8NE63)
[16] = biological target: ICK (human) (UniProt Q9UPZ9)
[17] = biological target: KIT (human) (UniProt P10721)
[18] = biological target: LRRK2 (human) (UniProt Q5S007)
[19] = biological target: MAP2K7 (human) (UniProt O14733)
[20] = biological target: MAP3K2 (human) (UniProt Q9Y2U5)
[21] = biological target: MAP3K6 (human) (UniProt O95382)
[22] = biological target: MATK (human) (UniProt P42679)
[23] = biological target: MET (human) (UniProt P08581)
[24] = biological target: MTOR (human) (UniProt P42345)
[25] = biological target: MYLK3 (human) (UniProt Q32MK0)
[26] = biological target: NEK3 (human) (UniProt P51956)
[27] = biological target: NEK4 (human) (UniProt P51957)
[28] = biological target: NIM1 (human) (UniProt Q8IY84)
[29] = biological target: PI4KB (human) (UniProt Q9UBF8)
[30] = tested on: PIK3CA (human), P42336 [C420R]
[31] = tested on: PIK3CA (human), P42336 [E545A]
[32] = biological target: PIK3CG (human) (UniProt P48736)
[33] = biological target: PIP4K2C (human) (UniProt Q8TBX8)
[34] = biological target: PKN3 (M.tuberculosis) (UniProt Q6P5Z2)
[35] = biological target: PRKCI (human) (UniProt P41743)
[36] = biological target: ROCK1 (human) (UniProt Q13464)
[37] = biological target: SIK3 (human) (UniProt Q9Y2K2)
[38] = biological target: TBK1 (human) (UniProt Q9UHD2)
[39] = biological target: TRPM6 (human) (UniProt Q9BX84)

Sequence of MAP3K2 (human) (Q9Y2U5 whole entry, looked up): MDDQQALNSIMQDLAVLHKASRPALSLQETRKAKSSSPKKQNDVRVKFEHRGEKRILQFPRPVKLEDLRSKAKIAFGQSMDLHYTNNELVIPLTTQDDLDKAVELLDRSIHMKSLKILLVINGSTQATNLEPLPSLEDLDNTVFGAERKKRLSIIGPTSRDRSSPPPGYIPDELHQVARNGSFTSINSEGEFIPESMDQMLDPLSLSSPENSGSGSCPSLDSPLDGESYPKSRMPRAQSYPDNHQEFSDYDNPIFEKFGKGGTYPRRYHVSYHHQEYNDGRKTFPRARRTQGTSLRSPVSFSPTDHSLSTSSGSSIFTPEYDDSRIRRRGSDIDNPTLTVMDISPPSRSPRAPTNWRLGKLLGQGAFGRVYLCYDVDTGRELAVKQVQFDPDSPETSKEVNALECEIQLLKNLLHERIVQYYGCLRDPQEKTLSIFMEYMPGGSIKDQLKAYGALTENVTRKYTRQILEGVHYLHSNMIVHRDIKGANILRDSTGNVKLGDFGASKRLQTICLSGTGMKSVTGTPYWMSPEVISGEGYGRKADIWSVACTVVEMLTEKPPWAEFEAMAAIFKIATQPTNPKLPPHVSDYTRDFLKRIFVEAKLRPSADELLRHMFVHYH
Sequence of DYRK2 (human) (Q92630 whole entry, looked up): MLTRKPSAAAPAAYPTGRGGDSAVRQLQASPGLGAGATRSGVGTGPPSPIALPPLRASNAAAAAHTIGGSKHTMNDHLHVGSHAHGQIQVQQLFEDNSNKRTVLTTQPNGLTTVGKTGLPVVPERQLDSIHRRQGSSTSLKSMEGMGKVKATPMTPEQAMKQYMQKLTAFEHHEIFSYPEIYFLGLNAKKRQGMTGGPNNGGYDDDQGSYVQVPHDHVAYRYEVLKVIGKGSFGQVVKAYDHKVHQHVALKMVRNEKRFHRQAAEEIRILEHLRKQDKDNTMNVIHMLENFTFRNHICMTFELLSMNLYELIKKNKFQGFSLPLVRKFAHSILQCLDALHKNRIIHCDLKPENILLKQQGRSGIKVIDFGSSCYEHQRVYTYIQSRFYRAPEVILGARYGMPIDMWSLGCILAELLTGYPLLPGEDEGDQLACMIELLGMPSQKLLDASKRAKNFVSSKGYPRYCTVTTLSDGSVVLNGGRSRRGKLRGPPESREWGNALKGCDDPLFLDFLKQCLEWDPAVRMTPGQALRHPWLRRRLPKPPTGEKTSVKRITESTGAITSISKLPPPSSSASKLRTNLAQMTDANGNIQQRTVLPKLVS
Sequence of MATK (human) (P42679 whole entry, looked up): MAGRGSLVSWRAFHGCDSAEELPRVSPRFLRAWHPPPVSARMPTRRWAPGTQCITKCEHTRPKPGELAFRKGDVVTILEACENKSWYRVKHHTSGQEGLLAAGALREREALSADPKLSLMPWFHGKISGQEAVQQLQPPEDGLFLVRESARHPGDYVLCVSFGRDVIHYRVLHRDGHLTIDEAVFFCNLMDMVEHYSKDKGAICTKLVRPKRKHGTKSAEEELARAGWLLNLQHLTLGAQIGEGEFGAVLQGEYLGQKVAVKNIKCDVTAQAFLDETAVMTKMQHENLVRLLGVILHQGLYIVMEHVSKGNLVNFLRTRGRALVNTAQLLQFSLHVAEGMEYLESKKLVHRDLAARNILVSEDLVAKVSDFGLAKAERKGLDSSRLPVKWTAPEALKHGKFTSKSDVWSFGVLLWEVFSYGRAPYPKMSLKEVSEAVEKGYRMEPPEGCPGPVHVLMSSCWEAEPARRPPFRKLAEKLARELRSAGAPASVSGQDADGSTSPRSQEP
Sequence of NIM1 (human) (Q8IY84 whole entry, looked up): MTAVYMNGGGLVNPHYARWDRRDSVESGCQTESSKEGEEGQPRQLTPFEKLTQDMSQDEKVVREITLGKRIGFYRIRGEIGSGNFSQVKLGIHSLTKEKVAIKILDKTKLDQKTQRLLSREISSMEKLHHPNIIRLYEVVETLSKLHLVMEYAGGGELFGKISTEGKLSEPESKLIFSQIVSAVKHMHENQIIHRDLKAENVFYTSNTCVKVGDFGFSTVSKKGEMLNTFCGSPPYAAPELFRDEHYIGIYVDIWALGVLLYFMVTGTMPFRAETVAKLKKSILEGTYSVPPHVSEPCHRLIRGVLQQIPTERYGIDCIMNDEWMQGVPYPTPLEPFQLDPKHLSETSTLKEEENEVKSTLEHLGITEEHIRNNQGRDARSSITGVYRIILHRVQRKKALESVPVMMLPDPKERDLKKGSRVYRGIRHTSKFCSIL
Sequence of ERN1 (human) (O75460 whole entry, looked up): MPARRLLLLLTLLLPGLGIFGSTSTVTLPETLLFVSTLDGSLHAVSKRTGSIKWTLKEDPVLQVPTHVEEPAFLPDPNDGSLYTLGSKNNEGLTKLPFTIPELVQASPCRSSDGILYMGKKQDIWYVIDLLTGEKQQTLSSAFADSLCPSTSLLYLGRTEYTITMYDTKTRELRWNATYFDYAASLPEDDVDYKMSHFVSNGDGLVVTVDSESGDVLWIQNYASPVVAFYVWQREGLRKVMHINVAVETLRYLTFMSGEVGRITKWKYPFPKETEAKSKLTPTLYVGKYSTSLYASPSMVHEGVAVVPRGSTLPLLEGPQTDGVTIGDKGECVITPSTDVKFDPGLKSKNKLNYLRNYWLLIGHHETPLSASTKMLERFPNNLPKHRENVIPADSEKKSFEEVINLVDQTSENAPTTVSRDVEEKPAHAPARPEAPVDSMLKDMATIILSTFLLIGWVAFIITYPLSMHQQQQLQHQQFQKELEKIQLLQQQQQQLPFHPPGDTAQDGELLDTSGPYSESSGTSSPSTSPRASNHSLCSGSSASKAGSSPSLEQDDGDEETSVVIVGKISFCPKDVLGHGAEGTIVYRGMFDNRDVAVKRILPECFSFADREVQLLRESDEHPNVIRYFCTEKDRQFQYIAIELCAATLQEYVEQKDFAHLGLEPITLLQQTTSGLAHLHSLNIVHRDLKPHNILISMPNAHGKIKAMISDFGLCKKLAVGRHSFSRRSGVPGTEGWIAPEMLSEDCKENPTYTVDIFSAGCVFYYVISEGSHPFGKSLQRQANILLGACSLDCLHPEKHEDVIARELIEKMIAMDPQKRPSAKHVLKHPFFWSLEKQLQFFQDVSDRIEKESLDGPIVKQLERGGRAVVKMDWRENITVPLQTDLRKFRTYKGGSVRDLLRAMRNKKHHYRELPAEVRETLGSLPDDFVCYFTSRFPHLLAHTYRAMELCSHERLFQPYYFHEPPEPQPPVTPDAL
Sequence of CDK4 CCND1 (human) (P11802 whole entry, looked up): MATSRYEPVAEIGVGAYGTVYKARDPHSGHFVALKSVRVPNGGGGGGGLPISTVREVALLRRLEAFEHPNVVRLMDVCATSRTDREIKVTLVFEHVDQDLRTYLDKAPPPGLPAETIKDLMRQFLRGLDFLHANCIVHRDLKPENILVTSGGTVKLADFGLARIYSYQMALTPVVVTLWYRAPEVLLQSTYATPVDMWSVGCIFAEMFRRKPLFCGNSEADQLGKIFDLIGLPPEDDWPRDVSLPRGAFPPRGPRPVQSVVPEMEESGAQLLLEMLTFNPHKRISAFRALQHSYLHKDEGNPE
Sequence of CDK4 CCND1 (human) (P24385 whole entry, looked up): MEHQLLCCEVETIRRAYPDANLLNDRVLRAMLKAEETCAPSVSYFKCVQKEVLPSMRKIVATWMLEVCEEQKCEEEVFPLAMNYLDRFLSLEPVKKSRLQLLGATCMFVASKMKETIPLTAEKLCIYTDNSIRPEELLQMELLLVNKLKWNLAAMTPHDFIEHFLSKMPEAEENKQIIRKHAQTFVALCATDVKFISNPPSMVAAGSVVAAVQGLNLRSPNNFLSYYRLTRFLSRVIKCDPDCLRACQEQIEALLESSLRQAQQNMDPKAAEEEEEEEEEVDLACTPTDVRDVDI
Sequence of CDK4 CCND3 (human) (P11802 whole entry, looked up): as the sequence (P11802 whole entry, looked up) above
Sequence of CDK4 CCND3 (human) (P30281 whole entry, looked up): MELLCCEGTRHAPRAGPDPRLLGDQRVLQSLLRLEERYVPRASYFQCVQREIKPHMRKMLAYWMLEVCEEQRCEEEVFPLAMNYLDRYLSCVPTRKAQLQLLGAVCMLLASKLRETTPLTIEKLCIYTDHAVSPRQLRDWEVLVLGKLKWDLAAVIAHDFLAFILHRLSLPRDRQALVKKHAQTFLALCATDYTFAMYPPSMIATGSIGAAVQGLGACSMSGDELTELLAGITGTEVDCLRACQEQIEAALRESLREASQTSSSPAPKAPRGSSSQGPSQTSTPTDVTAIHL
Sequence of NEK3 (human) (P51956 whole entry, looked up): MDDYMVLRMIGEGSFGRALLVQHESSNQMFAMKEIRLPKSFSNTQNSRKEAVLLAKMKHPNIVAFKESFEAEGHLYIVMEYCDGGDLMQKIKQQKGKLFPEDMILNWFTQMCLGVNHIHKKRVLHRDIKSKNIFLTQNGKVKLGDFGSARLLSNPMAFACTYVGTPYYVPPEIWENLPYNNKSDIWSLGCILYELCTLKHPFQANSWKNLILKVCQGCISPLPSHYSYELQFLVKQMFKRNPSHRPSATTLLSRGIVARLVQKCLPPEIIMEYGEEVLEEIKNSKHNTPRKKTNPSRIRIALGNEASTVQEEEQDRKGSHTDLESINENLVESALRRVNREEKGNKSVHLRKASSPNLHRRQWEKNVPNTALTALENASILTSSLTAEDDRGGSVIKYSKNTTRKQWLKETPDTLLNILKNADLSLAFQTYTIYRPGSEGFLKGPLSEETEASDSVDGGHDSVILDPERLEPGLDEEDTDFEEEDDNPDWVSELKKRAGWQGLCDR
Sequence of CDKL1 (human) (Q00532 whole entry, looked up): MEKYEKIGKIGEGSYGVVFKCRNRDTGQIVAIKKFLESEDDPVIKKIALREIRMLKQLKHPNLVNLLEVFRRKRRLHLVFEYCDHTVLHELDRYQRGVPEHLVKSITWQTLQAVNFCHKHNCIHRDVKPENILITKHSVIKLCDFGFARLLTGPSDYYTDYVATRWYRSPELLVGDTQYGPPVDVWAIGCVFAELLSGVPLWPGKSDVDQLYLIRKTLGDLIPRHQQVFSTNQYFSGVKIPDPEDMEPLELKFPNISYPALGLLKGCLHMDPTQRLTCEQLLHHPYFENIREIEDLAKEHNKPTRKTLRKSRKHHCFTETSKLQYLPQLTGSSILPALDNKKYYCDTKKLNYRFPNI

Work on `O=C(NC1CC1)c1cccc(-c2ccc3c(NC(=O)C4CC4)n[nH]c3c2)c1` yielded a kinase still bound, per cent of control [1] of 55%, a kinase still bound, per cent of control [2] of 100% and a kinase still bound, per cent of control [3] of 82%. The kinase still bound, per cent of control [4] was 94%, the kinase still bound, per cent of control [5] was 82% and the kinase still bound, per cent of control [6] was 58%. For the same compound, the kinase still bound, per cent of control [7] was 71%, the kinase still bound, per cent of control [8] was 98% and the kinase still bound, per cent of control [9] was 36%. For the same compound, the kinase still bound, per cent of control [10] was 90%, the kinase still bound, per cent of control [11] was 85% and the kinase still bound, per cent of control [12] was 1.4%. It also gave a kinase still bound, per cent of control [13] of 100%, a kinase still bound, per cent of control [14] of 61% and a kinase still bound, per cent of control [15] of 40%. It also gave a kinase still bound, per cent of control [16] of 13%, a kinase still bound, per cent of control [17] of 37% and a kinase still bound, per cent of control [18] of 100%. The kinase still bound, per cent of control [19] was 100%, the kinase still bound, per cent of control [20] was 63% and the kinase still bound, per cent of control [21] was 86%. For the same compound, the kinase still bound, per cent of control [22] was 68%, the kinase still bound, per cent of control [23] was 75% and the kinase still bound, per cent of control [24] was 100%. For the same compound, the kinase still bound, per cent of control [25] was 46%, the kinase still bound, per cent of control [26] was 75% and the kinase still bound, per cent of control [27] was 100%. For the same compound, the kinase still bound, per cent of control [28] was 100%, the kinase still bound, per cent of control [29] was 84% and the kinase still bound, per cent of control [30] was 100%. The kinase still bound, per cent of control [31] was 93%, the kinase still bound, per cent of control [32] was 90% and the kinase still bound, per cent of control [33] was 95%. It also gave a kinase still bound, per cent of control [34] of 15%, a kinase still bound, per cent of control [35] of 74% and a kinase still bound, per cent of control [36] of 57%. The kinase still bound, per cent of control [37] was 100%, the kinase still bound, per cent of control [38] was 61% and the kinase still bound, per cent of control [39] was 100%.

`C=CC(=O)Nc1cc(NC(=O)c2ccc(C)c(NC(=O)c3ccno3)c2)cc(C(F)(F)F)c1` was tested, and the kinase still bound, per cent of control [1] was 86%, the kinase still bound, per cent of control [2] was 100% and the kinase still bound, per cent of control [3] was 100%. The kinase still bound, per cent of control [4] was 100%, the kinase still bound, per cent of control [5] was 95% and the kinase still bound, per cent of control [6] was 100%. It also gave a kinase still bound, per cent of control [7] of 0.1%, a kinase still bound, per cent of control [8] of 99% and a kinase still bound, per cent of control [9] of 78%. For the same compound, the kinase still bound, per cent of control [10] was 81%, the kinase still bound, per cent of control [11] was 100% and the kinase still bound, per cent of control [12] was 81%. The kinase still bound, per cent of control [13] was 90%, the kinase still bound, per cent of control [14] was 100% and the kinase still bound, per cent of control [15] was 100%. The kinase still bound, per cent of control [16] was 75%, the kinase still bound, per cent of control [17] was 4.7% and the kinase still bound, per cent of control [18] was 89%. For the same compound, the kinase still bound, per cent of control [19] was 100%, the kinase still bound, per cent of control [20] was 100% and the kinase still bound, per cent of control [21] was 83%. The kinase still bound, per cent of control [22] was 100%, the kinase still bound, per cent of control [23] was 100% and the kinase still bound, per cent of control [24] was 97%. It also gave a kinase still bound, per cent of control [25] of 91%, a kinase still bound, per cent of control [26] of 88% and a kinase still bound, per cent of control [27] of 84%. For the same compound, the kinase still bound, per cent of control [28] was 98%, the kinase still bound, per cent of control [29] was 88% and the kinase still bound, per cent of control [30] was 82%. The kinase still bound, per cent of control [31] was 86%, the kinase still bound, per cent of control [32] was 76% and the kinase still bound, per cent of control [33] was 90%. For the same compound, the kinase still bound, per cent of control [34] was 75%, the kinase still bound, per cent of control [35] was 100% and the kinase still bound, per cent of control [36] was 100%. For the same compound, the kinase still bound, per cent of control [37] was 82%, the kinase still bound, per cent of control [38] was 100% and the kinase still bound, per cent of control [39] was 100%.

Work on `CN(C)C/C=C/C(=O)Nc1cccc(Nc2ncc3c(n2)N(C)c2ccccc2C(=O)N3C)c1` yielded a kinase still bound, per cent of control [1] of 0.1%, a kinase still bound, per cent of control [2] of 42% and a kinase still bound, per cent of control [3] of 96%. For the same compound, the kinase still bound, per cent of control [4] was 78%, the kinase still bound, per cent of control [5] was 85% and the kinase still bound, per cent of control [6] was 83%. For the same compound, the kinase still bound, per cent of control [7] was 5.4%, the kinase still bound, per cent of control [8] was 73% and the kinase still bound, per cent of control [9] was 47%. The kinase still bound, per cent of control [10] was 90%, the kinase still bound, per cent of control [11] was 67% and the kinase still bound, per cent of control [12] was 4.3%. For the same compound, the kinase still bound, per cent of control [13] was 69%, the kinase still bound, per cent of control [14] was 37% and the kinase still bound, per cent of control [15] was 76%. It also gave a kinase still bound, per cent of control [16] of 70%, a kinase still bound, per cent of control [17] of 66% and a kinase still bound, per cent of control [18] of 31%. For the same compound, the kinase still bound, per cent of control [19] was 97%, the kinase still bound, per cent of control [20] was 0.1% and the kinase still bound, per cent of control [21] was 94%. It also gave a kinase still bound, per cent of control [22] of 69%, a kinase still bound, per cent of control [23] of 48% and a kinase still bound, per cent of control [24] of 74%. The kinase still bound, per cent of control [25] was 100%, the kinase still bound, per cent of control [26] was 58% and the kinase still bound, per cent of control [27] was 87%. The kinase still bound, per cent of control [28] was 21%, the kinase still bound, per cent of control [29] was 87% and the kinase still bound, per cent of control [30] was 72%. For the same compound, the kinase still bound, per cent of control [31] was 67%, the kinase still bound, per cent of control [32] was 0% and the kinase still bound, per cent of control [33] was 6%. The kinase still bound, per cent of control [34] was 42%, the kinase still bound, per cent of control [35] was 97% and the kinase still bound, per cent of control [36] was 49%. The kinase still bound, per cent of control [37] was 20%, the kinase still bound, per cent of control [38] was 58% and the kinase still bound, per cent of control [39] was 91%.

With `CCN1CCN(Cc2ccc(Nc3ncc4c(n3)N(C)c3ccccc3C(=O)N4C)cc2C(F)(F)F)CC1` the kinase still bound, per cent of control [1] was 0.1%, the kinase still bound, per cent of control [2] was 67% and the kinase still bound, per cent of control [3] was 100%. The kinase still bound, per cent of control [4] was 65%, the kinase still bound, per cent of control [5] was 100% and the kinase still bound, per cent of control [6] was 98%. It also gave a kinase still bound, per cent of control [7] of 14%, a kinase still bound, per cent of control [8] of 51% and a kinase still bound, per cent of control [9] of 97%. The kinase still bound, per cent of control [10] was 74%, the kinase still bound, per cent of control [11] was 99% and the kinase still bound, per cent of control [12] was 21%. The kinase still bound, per cent of control [13] was 96%, the kinase still bound, per cent of control [14] was 62% and the kinase still bound, per cent of control [15] was 100%. For the same compound, the kinase still bound, per cent of control [16] was 80%, the kinase still bound, per cent of control [17] was 57% and the kinase still bound, per cent of control [18] was 15%. For the same compound, the kinase still bound, per cent of control [19] was 100%, the kinase still bound, per cent of control [20] was 0.55% and the kinase still bound, per cent of control [21] was 100%. For the same compound, the kinase still bound, per cent of control [22] was 94%, the kinase still bound, per cent of control [23] was 36% and the kinase still bound, per cent of control [24] was 39%. The kinase still bound, per cent of control [25] was 100%, the kinase still bound, per cent of control [26] was 100% and the kinase still bound, per cent of control [27] was 80%. For the same compound, the kinase still bound, per cent of control [28] was 57%, the kinase still bound, per cent of control [29] was 100% and the kinase still bound, per cent of control [30] was 18%. The kinase still bound, per cent of control [31] was 6.2%, the kinase still bound, per cent of control [32] was 0% and the kinase still bound, per cent of control [33] was 3.6%. The kinase still bound, per cent of control [34] was 22%, the kinase still bound, per cent of control [35] was 100% and the kinase still bound, per cent of control [36] was 94%. For the same compound, the kinase still bound, per cent of control [37] was 74%, the kinase still bound, per cent of control [38] was 60% and the kinase still bound, per cent of control [39] was 100%.
